The test addresses T1, IRAK4 (Homo sapiens, UniProt Q9NWZ3).
T1 construct: endogenous in cells; host or cells: OCI-LY10
T1 sequence (Q9NWZ3 1-460): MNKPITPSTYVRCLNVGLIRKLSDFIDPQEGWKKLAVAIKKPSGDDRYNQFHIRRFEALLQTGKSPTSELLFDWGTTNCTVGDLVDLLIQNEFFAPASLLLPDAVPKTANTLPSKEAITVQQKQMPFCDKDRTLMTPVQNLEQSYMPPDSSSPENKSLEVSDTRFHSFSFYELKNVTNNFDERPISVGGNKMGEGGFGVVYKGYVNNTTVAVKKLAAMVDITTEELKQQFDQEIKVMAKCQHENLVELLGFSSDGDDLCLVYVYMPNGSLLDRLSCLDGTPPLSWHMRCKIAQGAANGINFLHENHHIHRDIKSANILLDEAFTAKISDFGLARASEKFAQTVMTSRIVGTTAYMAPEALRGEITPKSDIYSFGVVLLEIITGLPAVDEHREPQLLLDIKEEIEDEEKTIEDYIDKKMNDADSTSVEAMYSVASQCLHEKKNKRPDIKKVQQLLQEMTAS
Nature of the test: IRAK4 MSD Degradation in OCI-LY10. The test is classed as cell-based. The conditions noted are these: OCI-LY10 cells, Meso Scale Discovery, incubated 4 to 24 hours. On the procedure:
Degradation of IRAK4 in OCI-LY10 was quantitatively measured using Meso Scale Discovery technology. OCI-LY10 cells were seeded in 96-well plates (Corning 3799) with a density of 300,000 cells per well in 100 μL fresh media. Compounds were then added to the assay plates with a final top concentration of 1 to 10 μM in a 1:3 dilution series with total of 8 doses. The assay plates were then incubated for 4 to 24 hours at 37° C. under 5% CO2. The assay plates were then centrifuged for 5 minutes and the cell pellets were treated with 100 μL/well RIPA lysis buffer (Boston BioProducts BP-115D) with proteinase inhibitors. To prepare MSD assay plates (Meso Scale Discovery Catalog number L15XA-3), the plates were coated with 2 μg/mL capture antibody (mouse Anti-IRAK4 antibody [2H9], ab119942) in PBS, at 40 μL/well. The plates were then incubated overnight at 4° C., washed 3 times with 150 μL/well TBST buffer (Cell Signaling Technology, Catalog number 9997S) and blocked with 150 μL/well blocking buffer (Meso Scale Discovery Catalog number R93BA-4). Cell lysates were then added to MSD assay plates and the plates were incubated at room temperature for 1 hour. The plates were then washed 3 times with 150 μL/well TBST buffer and […] primary detection antibody (rabbit Anti-IRAK4 antibody [Y279], from Abcam. Catalog number ab32511, 1 μg/mL). The assay plates were then incubated at room temperature for 1 hour, washed 3 times with 150 μL/well TBST buffer and 254/well secondary detection antibody, SULFO-TAG anti-rabbit antibody were added (anti rabbit antibody from Meso Scale Discovery, Catalog number R32AB-1, 1 μg/mL). The assay plates were then incubated at room temperature for 1 hour, washed 3 times with 150 μL/well TBST buffer, and 150 μL/well MSD reading buffer (Meso Scale Discovery catalog number R92TC-2) was added. The plates were then analyzed by a MSD reader (Meso Scale Discovery, Model Quick Plex SQ 120). The data was then analyzed by software Prism 7.0 from GraphPad and the dose-depended IRAK4 degradation were fit using a three-parameter logistic equation to calculate DC50.
The letter codes for IRAK4 DC50 include: A (<0.01 μM); B (0.01-0.05 μM); C (0.05-0.1 μM); D (0.1-0.2 μM); and E (>0.2 μM).

35 molecules from patent US12150995B2, “IRAK degraders and uses thereof” (Kymera Therapeutics, Inc., priority 2020, dated 2024) can be followed below.

On to `CC(C)(O)c1cc2nn(-c3ccc(CN4CCC5(CCC(Nc6cccc7c6C(=O)N(C6CCC(=O)NC6=O)C7=O)CC5)CC4)cc3)cc2cc1NC(=O)c1cccc(C(F)(F)F)n1` (centres unmarked) [I-462], for which the half-maximal degradation concentration (DC50) – broadly, the concentration at which degradation of the target reaches its halfway point – fell in the range of 100 to 200 nM. For `Cn1c(=O)n(C2CCC(=O)NC2=O)c2cccc(C3CCN(C[C@H]4CC[C@H](n5cc6cc(NC(=O)c7cncc(C#N)c7)c(OC(F)(F)F)cc6n5)CC4)CC3)c21` (some centres unmarked) [I-325] the value was over 200 nM; for `CN(C[C@H]1CC[C@H](n2cc3cc(NC(=O)c4cncc(C#N)c4)c(N4C[C@H]5C[C@@H]4CO5)cc3n2)CC1)C1CCN(c2cccc3c2n(C)c(=O)n3C2CCC(=O)NC2=O)CC1` (some centres unmarked) [I-217], over 200 nM; for `Cn1c(=O)n(C2CCC(=O)NC2=O)c2cccc(C3CCN(C[C@H]4CC[C@H](n5cc6cc(NC(=O)c7cnn8cccnc78)c(F)cc6n5)CC4)CC3)c21` (some centres unmarked) [I-63], under 10 nM.

For `Cn1c(=O)n(C2CCC(=O)NC2=O)c2cccc(C#CCN3CCN(C[C@H]4CC[C@H](n5cc6cc(NC(=O)c7cccc(C(F)(F)F)n7)c(C(C)(C)O)cc6n5)CC4)CC3)c21` (some centres unmarked) [I-326], the half-maximal degradation concentration (DC50) is under 10 nM. For the molecule `O=C1CCN(c2cncc3cc(N4CCN(C[C@H]5CC[C@H](n6cc7cc(NC(=O)c8cccc(C(F)(F)F)n8)c(C(F)F)cc7n6)CC5)CC4)ccc23)C(=O)N1` [I-375], the 50% degradation concentration (DC50) was 10 to 50 nM. Take `Cc1cccc(C(=O)Nc2cc3sc([C@H]4CC[C@H](CN5CCN(CCCNc6cccc7c6C(=O)N(C6CCC(=O)NC6=O)C7=O)[C@H](C)C5)CC4)nc3cc2C(C)(C)O)n1` (some centres unmarked) [I-452]: the DC50 fell in the range of 10 to 50 nM.

Molecule `O=C1CCN(c2cncc3cc(C4CCN(C[C@H]5CC[C@H](n6cc7cc(NC(=O)c8cccc(C(F)(F)F)n8)ncc7n6)CC5)CC4)ccc23)C(=O)N1` [I-318] returned a DC50 of over 200 nM.

On to `Cc1cc2nn([C@H]3CC[C@H](CN4CCN(c5cccc6c5n(C)c(=O)n6[C@H]5CCC(=O)NC5=O)CC4)CC3)cc2cc1NC(=O)c1cccc(C(F)(F)F)n1` [I-399, N-[2-[4-[[4-[1-[(3S)-2,6-dioxo-3-piperidyl]-3-methyl-2-oxo-benzimidazol-4-yl]piperazin-1-yl]methyl]cyclohexyl]-6-methyl-indazol-5-yl]-6-(trifluoromethyl)pyridine-2-carboxamide], for which the DC50 lay within 10 to 50 nM. For `CN(C[C@H]1CC[C@H](n2cc3cc(NC(=O)c4cccc(C(F)(F)F)n4)ccc3n2)CC1)C1CCN(c2cccc3c(N4CCC(=O)NC4=O)cncc23)CC1` [I-98] the value was over 200 nM. The molecule `Cn1c(=O)n(C2CCC(=O)NC2=O)c2cccc(C3CCN(C[C@H]4CC[C@H](N5Cc6cc(NC(=O)c7cccc(C(F)(F)F)n7)c(N7C[C@H]8C[C@@H]7CO8)cc6C5=O)CC4)CC3)c21` (some centres unmarked) [I-29] gave a DC50 of under 10 nM. For `COc1cc2nn([C@H]3CC[C@H](CN(C)[C@H]4CC[C@H](c5cccc6c5n(C)c(=O)n6C5CCC(=O)NC5=O)CC4)CC3)cc2cc1NC(=O)c1cccc(C(F)(F)F)n1` (some centres unmarked) [I-5, N-[2-[4-[[[4-[1-(2,6-dioxo-3-piperidyl)-3-methyl-2-oxo-benzimidazol-4-yl]cyclohexyl]-methyl-amino]methyl]cyclohexyl]-6-methoxy-indazol-5-yl]-6-(trifluoromethyl)pyridine-2-carboxamide], the DC50 is under 10 nM. For `COc1cc2nn([C@H]3CC[C@H](CN4CCC(CCNc5cccc6c5C(=O)N(C5CCC(=O)NC5=O)C6=O)CC4)CC3)cc2cc1NC(=O)c1cccc(C(C)(F)F)n1` (some centres unmarked) [I-8] the value was 10 to 50 nM; for `COc1cc2nc([C@H]3CC[C@H](CN(C)CCCCNc4cccc5c4C(=O)N(C4CCC(=O)NC4=O)C5=O)CC3)sc2cc1NC(=O)c1cncc(Cl)c1` (some centres unmarked) [I-480], over 200 nM.

`COc1cc2nn([C@H]3CC[C@H](CN4CCN(c5cccc6c(N7CCC(=O)NC7=O)ncnc56)CC4)CC3)cc2cc1NC(=O)c1cccc(C(F)(F)F)n1` [I-380] registered a half-maximal degradation concentration (DC50) of 10 to 50 nM. For `CC(C)(O)c1cc2nc([C@H]3CC[C@H](CN4CCO[C@H](CCCNc5cccc6c5C(=O)N(C5CCC(=O)NC5=O)C6=O)C4)CC3)sc2cc1NC(=O)c1cccc(C#N)n1` (some centres unmarked) [I-442] the value was 50 to 100 nM; for `Cc1cccc(C(=O)Nc2cc3sc([C@H]4CC[C@H](CN5CCO[C@H](CCCNc6cccc7c6C(=O)N(C6CCC(=O)NC6=O)C7=O)C5)CC4)nc3cc2C(C)(C)O)n1` (some centres unmarked) [I-477], 100 to 200 nM. The molecule `C[C@@H]1CN(C[C@H]2CC[C@H](n3cc4cc(NC(=O)c5cccc(C(F)(F)F)n5)c(C(C)(C)O)cc4n3)CC2)CCN1c1cccc2c(N3CCC(=O)NC3=O)cncc12` [I-257] returned a DC50 of under 10 nM. `COc1cc2nn([C@H]3C[C@H](CN4CCC(c5c(OC)ccc6c5n(C)c(=O)n6C5CCC(=O)NC5=O)CC4)C3)cc2cc1NC(=O)c1cccc(C(F)(F)F)n1` (some centres unmarked) [I-138] showed a DC50 of under 10 nM. `O=C1CCN(c2cncc3cc(C4CCN(C[C@H]5CC[C@H](n6cc7cc(NC(=O)c8cccc(C(F)(F)F)n8)ccc7n6)CC5)CC4)ccc23)C(=O)N1` [I-321]: the DC50 is over 200 nM. In turn, `Cn1c(=O)n(C2CCC(=O)NC2=O)c2cccc(C3CCN(C[C@H]4CC[C@H](n5cc6cc(NC(=O)c7nc(C(F)(F)F)cs7)ccc6n5)CC4)CC3)c21` (some centres unmarked) [I-215] showed a DC50 of under 10 nM.

`COc1cc2nn([C@H]3CC[C@H](CN4CCN(c5cccc6c(N7CCC(=O)NC7=O)cncc56)[C@@H](C)C4)CC3)cc2cc1NC(=O)c1cccc(C(F)(F)F)n1` [I-233] displayed a DC50 of under 10 nM. In turn, `CC(C)Nc1c(C(=O)N[C@H]2CC[C@H](CN3CCC(c4cccc5c(N6CCC(=O)NC6=O)cncc45)CC3)CC2)cnc2c1Oc1ccc(C#N)cc1O2` [I-310] returned a DC50 of over 200 nM.

`Cn1c(=O)n(C2CCC(=O)NC2=O)c2cccc(C3CCN(C[C@H]4C[C@H](n5cc6cc(NC(=O)c7cccc(C(F)(F)F)n7)ccc6n5)C4)CC3)c21` (some centres unmarked) [I-140]: the DC50 lay within 100 to 200 nM. In the case of `CN(C[C@H]1CC[C@H](n2cc3cc(NC(=O)c4cccc(C(F)(F)F)n4)ccc3n2)CC1)C1CCN(c2cccc3c2n(C)c(=O)n3C2CCC(=O)NC2=O)CC1` (some centres unmarked) [I-58], the DC50 is under 10 nM. The molecule `CC(C)Nc1cc(-n2ccc3cc(C#N)cnc32)ncc1-c1cn([C@H]2CC[C@H](CN3CCN(c4cccc5c(N6CCC(=O)NC6=O)cncc45)CC3)CC2)nn1` [I-197] yielded a 50% degradation concentration (DC50) of under 10 nM. For `Cc1ccc2c(c1C1CCN(C[C@H]3C[C@H](n4cc5cc(NC(=O)c6cccc(C(F)(F)F)n6)c(Cl)cc5n4)C3)CC1)n(C)c(=O)n2C1CCC(=O)NC1=O` (some centres unmarked) [I-143], the 50% degradation concentration (DC50) was 50 to 100 nM. The molecule `COc1cc2nc([C@H]3CC[C@H](CN(C)CCNc4cccc5c4C(=O)N(C4CCC(=O)NC4=O)C5=O)CC3)sc2cc1NC(=O)c1cncc(F)c1` (some centres unmarked) [I-481] came in with a DC50 of over 200 nM. For `COc1cc2nc([C@H]3CC[C@H](CN4CCC(c5cccc6c5n(C)c(=O)n6C5CCC(=O)NC5=O)CC4)CC3)sc2cc1NC(=O)c1cncc(Cl)c1` (some centres unmarked) [I-182], the DC50 was under 10 nM. `Cn1c(=O)n(C2CCC(=O)NC2=O)c2cccc(N3CCN(C[C@H]4CC[C@H](n5cc6cc(NC(=O)c7cccc(C(F)(F)F)n7)c(F)cc6n5)CC4)CC3)c21` (some centres unmarked) [I-359] displayed a DC50 of under 10 nM. `COc1cc2nn([C@H]3CC[C@H](CN4CCN(c5ccc(N6CCC(=O)NC6=O)cc5)CC4)CC3)cc2cc1NC(=O)c1cccc(C(F)(F)F)n1` [I-312] gave a half-maximal degradation concentration (DC50) of over 200 nM.

As for `Cn1c(=O)n(C2CCC(=O)NC2=O)c2cccc(N3CCN(C[C@H]4CC[C@H](n5cc6cc(NC(=O)c7cccc(C(F)(F)F)n7)c(N7C[C@H]8C[C@@H]7CO8)cc6n5)CC4)CC3)c21` (some centres unmarked) [I-384], the DC50 was under 10 nM. Molecule `Cn1c(=O)n(C2CCC(=O)NC2=O)c2cccc(C3CCN(C[C@H]4CC[C@H](N5Cc6cc(NC(=O)c7cccc(C(F)(F)F)n7)c(N7C[C@@H]8C[C@H]7CO8)cc6C5=O)CC4)CC3)c21` (some centres unmarked) [I-27] had a DC50 of under 10 nM. For `COc1cc2nn([C@H]3CC[C@H](CN(C)C4CCN(c5c(C)ccc6c5n(C)c(=O)n6C5CCC(=O)NC5=O)CC4)CC3)cc2cc1NC(=O)c1cccc(C(F)(F)F)n1` (some centres unmarked) [I-40], the 50% degradation concentration (DC50) is 10 to 50 nM.

On to `Cn1c(=O)n(C2CCC(=O)NC2=O)c2cccc(C3CCN(C[C@H]4C[C@H](n5cc6cc(NC(=O)c7cccc(C(F)(F)F)n7)c(Cl)cc6n5)C4)CC3)c21` (some centres unmarked) [I-90], for which the DC50 was 10 to 50 nM.
